In patent publication US20060112439A1, “Delta opioid receptor disruptions, compositions and methods related thereto” (priority 2001, published 2006):

Test system: mice (F2N1 wild-type and delta-opioid receptor homozygous mutant)
Test: Metrazol Test (seizure susceptibility; tail vein infusion of pentylenetetrazole)
Assay type: in vivo, mouse
Conditions: n=10, about 5 mg/ml infused via tail vein at about 0.375 ml/min
Description: A metrazol administration test can be used to screen animals for varying susceptibilities to seizures or similar events. For example, a 5 mg/ml solution of metrazol can be infused through the tail vein of a mouse at a rate of, e.g., approximately 0.375 ml/min. The infusion will cause all mice to experience seizures, followed by death. Those mice that enter the seizure stage the soonest are believed to be more prone to seizures.
To screen for phenotypes involving changes in seizure susceptibility, the Metrazol Test was be used. About 5 mg/ml of Metrazol was infused through the tail vein of the mouse at a constant rate of about 0.375 ml/min. The infusion caused all mice to experience seizures. Those mice entering the seizure stage the quickest were thought to be more prone to seizures in general.
The Metrazol test can also be used to screen for phenotypes related to epilepsy. Ten adult F2N1 wild-type control male mice and ten F2N1 homozygous mutant males were used, all derived from the same ES cell line. A fresh solution of about 5 mg/ml pentylenetetrazole in approximately 0.9% NaCl was prepared prior to testing. Mice were weighed and loosely held in a restrainer. After exposure to a heat lamp to dilate the tail vein, mice were continuously infused with the pentylenetetrazole solution using a syringe pump set at a constant flow rate. The following stages were recorded: first twitch (sometimes accompanied by a squeak), beginning of the tonic/clonic seizure, tonic extension and survival time. The dose required for each phase was determined and the latency to each phase was determined between genotypes. Alterations in any stage may indicate an overall imbalance in excitatory or inhibitory neurotransmitter levels.

[1] = F2N1 delta-opioid receptor homozygous mutant (−/−) male mice

C1CCc2nnnn2CC1 [metrazol, pentylenetetrazole]
Dose (average ± std dev) to death [1]: 121.96 ± 31.09 mg/kg | Dose (average ± std dev) to first twitch [1]: 30.97 ± 5.20 mg/kg | Dose (average ± std dev) to tonic extension [1]: 97.59 ± 32.27 mg/kg | Dose (average ± std dev) to tonic/clonic seizure [1]: 53.48 ± 12.44 mg/kg | Dose (average ± std dev) to death (F2N1 wild-type (+/+) male mice): 181.91 ± 83.20 mg/kg | Dose (average ± std dev) to first twitch (F2N1 wild-type (+/+) male mice): 28.23 ± 5.58 mg/kg | Dose (average ± std dev) to tonic extension (F2N1 wild-type (+/+) male mice): 126.54 ± 23.60 mg/kg | Dose (average ± std dev) to tonic/clonic seizure (F2N1 wild-type (+/+) male mice): 39.62 ± 8.21 mg/kg
